# Assay results: patent publication US8198293B2, “Oxymatrine compositions and related methods for treating and preventing chronic infectious diseases” (priority 2008, dated 2012)
# How the values were obtained:
# [1] = test system: enterovirus infection (ME/CFS patients); experiment: Oxymatrine open-label, controlled clinical study in ME/CFS patients with enterovirus infection; format: in vivo, human
# Experimental: An open-label, controlled study was conducted on patients who fulfilled the international criteria for myalgic encephalomyelitis (ME)/chronic fatigue syndrome (CFS) and had virological evidence of enterovirus infection.
# One hundred patients took oxymatrine at dose of 200-300 mg twice a day with or without food for a minimum of three months. Patients who could not complete the course due to side effects or intolerance were considered as failures (intent-to-treat analysis). Of the first group, 52% ( 52/100) responded to oxymatrine, as compared to 6% ( 7/114) of the control groups (p<0.000001, x^2 test). Of the next 104 patients, 52% responded to treatment. […] Fifty-three percent ( 57/107) of patients with elevated coxsackie virus B (CVB) and echovirus (Ech) antibody responded to therapy and 50% ( 49/97) of patients with non-typeable EV infections improved (NS, x^2 test). Fifty-two percent ( 47/91) of patients with positive EV protein in stomach biopsies responded, whereas 56% ( 5/9) of patients with negative biopsies responded (NS, x^2 test).
# Relapse of symptoms was common after discontinuing oxymatrine. Fifty-nine percent ( 19/32) of patients (4 male, 15 female) relapsed within two days to one month after discontinuation of oxymatrine. Eighty-seven percent ( 13/15) of patients who relapsed responded to restart of oxymatrine. Subsequent responders were continued on oxymatrine beyond six months.
# A small percentage ( 2/204) of patients had transient increase in potassium, which returned to normal without specific treatment. A small percentage of patients ( 2/204) had elevated blood pressure that prompted discontinuation of therapy. […] Transient, moderate increase in pre-existing symptoms were reported by more than 50% of the patients but most patients continued to take the herbs at the same or reduced dose. Twenty patients (10%) stopped oxymatrine within the first eight weeks due to intolerable side effects. […]
# [2] = test system: cytokine gene expression (Th1/Th2); experiment: Cytokine gene expression study before and during/after oxymatrine; format: in vivo, human
# From the text: FIG. 4 graphically illustrates a cytokine gene expression study before and after oxymatrine (RQ is the gene expression ratio).
# FIG. 5 graphically illustrates cytokine gene expression of interleukin-12P35+P40/interleukin-10 in tissue from CFS patients at the start of (pre-oxymatrine) and during oxymatrine therapy (n=17).
# A cytokine gene expression study on blood samples before (Sample 2) and after (Sample 3) taking oxymatrine for 15 months in one patient, is graphically illustrated in FIG. 4. […] FIG. 5 illustrates that neutralizing antibodies CBV 3 and CBV 4 were obtained serially over a three year period (performed by ARUP laboratory, Salt Lake City, Utah).
# enterovirus protein = experiment: Immunoperoxidase staining of stomach biopsy for enterovirus protein (5D8/1); format: in vivo, human; details: one patient (case 5), before vs after taking oxymatrine for 6 months; correlated with symptomatic improvement
# From the text: FIG. 2 illustrates the infected human stomach (biopsy of case 5 stained with 5D8/1) before treatment with oxymatrine.
# FIG. 3 illustrates the stomach biopsy of case 5 stained with 5 D8/1 after taking oxymatrine for 6 months.
# FIG. 2 illustrates immunoperoxidase staining for enterovirus protein in a stomach biopsy before oxymatrine therapy for one patient. […] The decrease in viral protein correlated with significant symptomatic improvement.
# coxsackievirus B = details: in vitro, cell cultures; mechanism not defined; cited from earlier work
# hepatitis B virus = details: HBV transgenic mice, cited from earlier work
# chronic hepatitis B = details: oral, after one year of treatment; cited from earlier work
# [3] = side effects in 176 patients having taken oxymatrine
# [4] = blood samples of one patient before and after 15 months of oxymatrine (FIG. 4)
# [5] = compared to placebo-treated animals
structure (smiles),measurement,setting,value
O=C1CCC[C@@H]2[C@H]3CCC[N@+]4([O-])CCC[C@@H](CN12)[C@@H]34 [oxymatrine],relapsed patients who responded to restart of oxymatrine,[1]; 13/15,Eighty-seven
same,patients relapsed after discontinuation of oxymatrine,"[1]; 19/32, within two days to one month after discontinuation",Fifty-nine
same,duration of the increase in symptoms,[1]; better tolerated when dose increased gradually over 2-3 weeks or longer,a few days to several weeks
same,"patients reporting transient, moderate increase in pre-existing symptoms","[1]; both, human, in vivo",more than 50%
same,changes of other chemistry parameters and complete blood counts (CBC),[1]; compared to baseline values,no significant changes
same,tolerability in most of the patients,[1]; except variable increase of pre-existing symptoms during the first 1-2 days of maximal doses,tolerated oxymatrine well
same,patients responded to oxymatrine,"[1]; first group (52/100), 200-300 mg twice a day, minimum three months, intent-to-treat, control 6% (7/114)",52%
same,serious complications during therapy,"[1]; human, in vivo",No serious complications
same,patients responded to treatment,[1]; next 104 patients,52%
same,patients with elevated blood pressure that prompted discontinuation of therapy,[1]; of 204 patients,2/204
same,patients with transient increase in potassium,"[1]; of 204 patients, returned to normal without specific treatment",2/204
same,patients responded to therapy,[1]; patients with elevated coxsackie virus B and echovirus antibody (57/107),Fifty-three
same,patients improved,[1]; patients with non-typeable EV infections (49/97),50%
same,patients responded,[1]; patients with positive EV protein in stomach biopsies (47/91),Fifty-two
same,"Diffuse rashes, % of total patients",[1]; [3],<1%
same,"Dry eyes and mouth, % of total patients",[1]; [3],1%
same,"Fevers, % of total patients",[1]; [3],2%
same,"Herpes simplex virus outbreak after discontinuation, % of total patients",[1]; [3],1%
same,"Increase in blood pressure, % of total patients",[1]; [3],1%
same,"Increase in edema, % of total patients",[1]; [3],1%
same,"Increased abdominal pain, % of total patients",[1]; [3],6%
same,"Increased bladder symptoms, % of total patients",[1]; [3],2%
same,"Increased diarrhea, % of total patients",[1]; [3],4%
same,"Increased dizziness, % of total patients",[1]; [3],2%
same,"Increased fatigue, % of total patients",[1]; [3],4%
same,"Increased headache, % of total patients",[1]; [3],8%
same,"Increased insomnia, % of total patients",[1]; [3],1%
same,"Increased myalgia, % of total patients",[1]; [3],30%
same,"Increased nausea, % of total patients",[1]; [3],6%
same,"Increased palpitation, chest pain, % of total patients",[1]; [3],3%
same,"Increased polyarthralgia, % of total patients",[1]; [3],1%
same,"Increased sinus congestion, % of total patients",[1]; [3],3%
same,"Inflammation of skin lesion, % of total patients",[1]; [3],1%
same,"New rashes, % of total patients",[1]; [3],<1%
same,"Seizure (petit mal), % of total patients",[1]; [3],<1%
same,"Weight gain, % of total patients",[1]; [3],1%
same,outcome in one patient with severe increase in febrile response and marked worsening of symptoms,[1]; toward the end of three months of medication,lasting remission
same,patients who stopped oxymatrine due to intolerable side effects,"[1]; within the first eight weeks, twenty patients",10%
same,"Th1 cytokines gene expression (interleukin-2, interleukin-12, interleukin-15)",[2]; [4],significant increase
same,regulatory Th2 cytokine gene expression (interleukin-10),[2]; [4],significant decrease
same,increase of the interleukin-12P35+P40/interleukin-10 gene expression ratio,"[2]; seven responders of n=17 CFS patients, pre-oxymatrine vs during therapy (FIG. 5)",greater than 2 fold
same,interleukin-12P35+P40/interleukin-10 gene expression ratio,[2]; ten non-responders of n=17 CFS patients (FIG. 5),remained the same or decreased
same,enterovirus protein in stomach biopsy by staining with monoclonal antibody 5D8/1,enterovirus protein,significant reduction in viral protein
same,growth inhibition of coxsackievirus B,coxsackievirus B,growth inhibition
same,level of gamma interferon,hepatitis B virus; [5],increased more than three-fold
same,level of interleukin-2,hepatitis B virus; [5],increased more than three-fold
same,level of interleukin-4,hepatitis B virus; [5],decreased more than three-fold
same,level of interleukin-10,hepatitis B virus; [5],decreased more than three-fold
same,"effect on hepatitis B viremia, mRNA and protein levels",hepatitis B virus,No effect
same,overall cure rate,chronic hepatitis B,about 40%
